What all share (assay): In situ competitive SILAC profiling with A-DA probe in (PMA-stimulated) A549 cells
Common to all, as to details: A549 cells, A-DA probe

For assay [1], the target named is T1, A-DA lipid probe targets in A549 cells (Homo sapiens, UniProt Q99536).
T1 sequence (Q99536 1-393): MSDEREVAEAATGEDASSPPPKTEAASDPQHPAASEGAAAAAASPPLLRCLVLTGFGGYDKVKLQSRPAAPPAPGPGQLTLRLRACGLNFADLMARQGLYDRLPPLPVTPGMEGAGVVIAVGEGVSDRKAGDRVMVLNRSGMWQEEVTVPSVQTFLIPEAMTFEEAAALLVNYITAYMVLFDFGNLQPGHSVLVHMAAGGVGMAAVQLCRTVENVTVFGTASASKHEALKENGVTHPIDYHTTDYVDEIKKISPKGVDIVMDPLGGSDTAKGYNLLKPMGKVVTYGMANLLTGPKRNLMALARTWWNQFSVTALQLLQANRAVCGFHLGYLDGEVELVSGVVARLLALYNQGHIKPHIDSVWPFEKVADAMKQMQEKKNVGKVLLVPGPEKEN

In assay [2] the target is T2, A-DA lipid probe targets in A549 cells (Homo sapiens, UniProt O75911).
T2 sequence (O75911 1-302): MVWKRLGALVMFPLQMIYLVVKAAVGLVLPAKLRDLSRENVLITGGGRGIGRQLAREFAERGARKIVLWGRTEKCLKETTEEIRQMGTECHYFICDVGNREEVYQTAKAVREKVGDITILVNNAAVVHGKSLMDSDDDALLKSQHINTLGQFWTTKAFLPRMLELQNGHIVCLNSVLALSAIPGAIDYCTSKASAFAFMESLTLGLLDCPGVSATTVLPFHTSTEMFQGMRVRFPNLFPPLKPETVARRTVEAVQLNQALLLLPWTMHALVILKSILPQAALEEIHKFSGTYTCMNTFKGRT

The target in assay [3] is T3, A-DA lipid probe targets in A549 cells (Homo sapiens, UniProt P50402).
T3 sequence (P50402 1-254): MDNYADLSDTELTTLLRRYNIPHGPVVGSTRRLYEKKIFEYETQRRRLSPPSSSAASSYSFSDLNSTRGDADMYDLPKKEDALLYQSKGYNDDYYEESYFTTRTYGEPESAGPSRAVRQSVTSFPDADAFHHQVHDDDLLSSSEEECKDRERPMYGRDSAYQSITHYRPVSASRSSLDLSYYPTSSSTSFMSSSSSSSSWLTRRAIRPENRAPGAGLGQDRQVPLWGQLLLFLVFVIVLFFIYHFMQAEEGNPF

Assay [4] has as its target A-DA lipid probe targets in A549 cells (Homo sapiens, UniProt Q9H6K4).
For assay [5], the target named is T4, A-DA lipid probe targets in A549 cells (Homo sapiens, UniProt P45880).
T4 sequence (P45880 1-294): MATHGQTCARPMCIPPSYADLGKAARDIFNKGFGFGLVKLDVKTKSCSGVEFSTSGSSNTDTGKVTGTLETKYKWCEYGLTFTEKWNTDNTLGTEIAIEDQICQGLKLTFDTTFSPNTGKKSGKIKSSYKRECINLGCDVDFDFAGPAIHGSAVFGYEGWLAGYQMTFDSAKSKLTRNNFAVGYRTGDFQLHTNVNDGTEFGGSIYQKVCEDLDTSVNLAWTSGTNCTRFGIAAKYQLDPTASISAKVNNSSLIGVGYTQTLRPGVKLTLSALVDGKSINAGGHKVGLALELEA

In assay [6] the target is T5, A-DA lipid probe targets in A549 cells (Homo sapiens, UniProt Q9HAW7).
T5 sequence (Q9HAW7 26-530): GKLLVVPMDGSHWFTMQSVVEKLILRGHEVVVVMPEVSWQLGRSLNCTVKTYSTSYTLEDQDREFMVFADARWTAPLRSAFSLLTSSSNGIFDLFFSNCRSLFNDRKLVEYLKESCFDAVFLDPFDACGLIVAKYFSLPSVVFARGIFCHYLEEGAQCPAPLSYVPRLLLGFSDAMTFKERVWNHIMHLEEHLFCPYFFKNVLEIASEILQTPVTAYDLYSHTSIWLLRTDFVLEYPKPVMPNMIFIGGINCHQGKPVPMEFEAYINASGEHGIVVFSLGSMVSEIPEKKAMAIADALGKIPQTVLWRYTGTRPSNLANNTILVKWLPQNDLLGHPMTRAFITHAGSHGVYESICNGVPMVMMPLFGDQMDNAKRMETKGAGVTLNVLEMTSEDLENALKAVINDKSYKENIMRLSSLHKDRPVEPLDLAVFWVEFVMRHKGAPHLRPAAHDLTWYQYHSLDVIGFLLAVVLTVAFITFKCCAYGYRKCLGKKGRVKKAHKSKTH

Two compounds from patent publication US10168342B2, “Lipid probes and uses thereof” (THE SCRIPPS RESEARCH INSTITUTE, priority 2015, dated 2019) can be followed below.

Structures are written as SMILES.

Sequence of A-DA lipid probe targets in A549 cells (Homo sapiens, UniProt Q9H6K4) (Q9H6K4 whole entry): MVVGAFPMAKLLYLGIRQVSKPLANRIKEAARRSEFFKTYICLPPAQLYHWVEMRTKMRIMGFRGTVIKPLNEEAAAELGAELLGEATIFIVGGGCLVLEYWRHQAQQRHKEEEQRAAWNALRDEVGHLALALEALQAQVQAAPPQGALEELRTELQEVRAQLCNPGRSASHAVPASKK

With `C=CCN(C)CCCCCCOc1ccc(C(=O)c2ccc(Br)cc2)c(F)c1` [Ro488071], the “SILAC ratio, VAT1 (Q99536)” value was determined as 1.4 in assay [1] (competitor 5 μM) and 2.5 in assay [1] (competitor 50 μM). Also, the “SILAC ratio, DHRS3 (O75911)” value in assay [2] (competitor 5 μM) was 1.8; in assay [2] (competitor 50 μM) it was 3.1. Further, the results for the “SILAC ratio, EMD (O08579)” value in assay [3] (competitor 5 μM) and in assay [3] (competitor 50 μM) were 0.6 and 0.8, respectively. Besides, the “SILAC ratio, OPA3 (Q505D7)” value in assay [4] (competitor 5 μM) came to 1.8. In addition, the results for the “SILAC ratio, VDAC2 (P45880)” value in assay [5] (competitor 5 μM) and in assay [5] (competitor 50 μM) were 1.5 and 3.4, respectively. Besides, the “SILAC ratio, UGT1A7 (Q9HAW7)” value in assay [6] (competitor 5 μM) was 1.6; in assay [6] (competitor 50 μM), 40.0.

On to `O=C(/C=C/c1cccnc1)NCCCCC1CCN(C(=O)c2ccccc2)CC1` [FK-866, reference compound], for which the “SILAC ratio, VAT1 (Q99536)” value in assay [1] (competitor 25 μM) came out at 4.0. For the same compound, the “SILAC ratio, DHRS3 (O75911)” value in assay [2] (competitor 25 μM) is reported as 2.0. Besides, the “SILAC ratio, EMD (O08579)” value in assay [3] (competitor 25 μM) was 1.3. Also, the “SILAC ratio, OPA3 (Q505D7)” value in assay [4] (competitor 25 μM) stood at 1.3. Further, in assay [5] (competitor 25 μM), the “SILAC ratio, VDAC2 (P45880)” value was determined as 1.2. The “SILAC ratio, UGT1A7 (Q9HAW7)” value in assay [6] (competitor 25 μM) is given as 2.1.
